Read-outs that look alike come from different tables or passages of the source.
System: cancer cell lines from the cancer cell line encyclopedia (CCLE)
Assay: Cell line profiling (CLiP) proliferation experiment
Assay type: cell-based
Conditions: Homo sapiens; for IC50: read-out: Crossing Point; for EC50: read-out: Inflection Point
Protocol: Compound profiling experiment and data analysis was performed as previously described. Data was imported and plotted using the Tibco Spotfire DXP application. Lines were categorized as sensitive, intermediate and refractory as follows: Amax<-40 & Inflection Point <2 ~ Sensitive, Amax>-20 & Inflection Point >10 ~ Refractory, all else were called Intermediate. Cancer Cell line HG-U133 Plus 2 data was processed and normalized as described. […] Five sets of refractory cell lines were generated from the pool of refractory cell lines trying to match the lineage composition of the set of sensitive cell lines. The limma package was used as previously described to perform the statistical comparison.

[1] = SNU1, cell line SNU-1, stomach, undifferentiated_adenocarcinoma
[2] = SNU-16, cell line SNU-16, stomach, undifferentiated_adenocarcinoma
[3] = SNU-475, cell line SNU-475, liver, hepatocellular_carcinoma
[4] = SNU-C1, SNU-C1 (large_intestine, adenocarcinoma)
[5] = ST486, ST486 (haematopoietic_and_lymphoid_tissue, Burkitt_lymphoma)
[6] = SU-DHL-4, SU-DHL-4 (haematopoietic_and_lymphoid_tissue, diffuse_large_B_cell_lymphoma)
[7] = SU-DHL-5, SU-DHL-5 (haematopoietic_and_lymphoid_tissue, diffuse_large_B_cell_lymphoma)
[8] = SU-DHL-8, SU-DHL-8 (haematopoietic_and_lymphoid_tissue, diffuse_large_B_cell_lymphoma)
[9] = SW48, SW48 (large_intestine, adenocarcinoma)
[10] = SW480, SW480 (large_intestine, adenocarcinoma)
[11] = SW1088, SW 1088 (central_nervous_system, NS)
[12] = SW1417, SW1417 (large_intestine, adenocarcinoma)
[13] = SW-620, SW620 (large_intestine, adenocarcinoma)
[14] = TE-11, TE-11 (oesophagus, squamous_cell_carcinoma)
[15] = TE-15, TE-15 (oesophagus, squamous_cell_carcinoma)
[16] = TOV112D, TOV-112D (ovary, endometrioid_carcinoma)
[17] = WSUDLCL2, WSU-DLCL2 cell line, haematopoietic_and_lymphoid_tissue, diffuse_large_B_cell_lymphoma
[18] = ZR-75-1, ZR-75-1 cell line, breast, ductal_carcinoma

CC(C)[C@@]12C[C@@H](O)[C@@](C)(O1)[C@@H]1CC[C@@H](C)[C@H]1[C@@H]2OC(=O)/C=C/c1ccccc1 [Englerin B]
11.9 µM: EC50 [13]
29 µM: IC50 [9] | EC50 [9]
12.1 µM: EC50 [1]
14.8 µM: EC50 [4] | EC50 (SNU-C1, SNU-C1 cells)
14.6 µM: IC50 [8] | IC50 (U-937, U-937 (haematopoietic_and_lymphoid_tissue, malignant_histiocytosis))
19.1 µM: IC50 (SNU-449, SNU-449 (liver)) | IC50 (SNU-449, cell line SNU-449, liver, hepatocellular_carcinoma)
20.5 µM: IC50 [6] | EC50 [6]
18.5 µM: IC50 (SU-DHL10, SU-DHL-10 (haematopoietic_and_lymphoid_tissue, diffuse_large_B_cell_lymphoma))
18.9 µM: IC50 (VM-CUB-1, VM-CUB1 cell line, urinary_tract, transitional_cell_carcinoma)
19.5 µM: IC50 [16]
14.7 µM: IC50 [7] | EC50 [7]
12.8 µM: IC50 [13]
13.5 µM: EC50 (SNU-16, SNU-16 cells) | EC50 [2] | IC50 [5] | EC50 [5] | EC50 [14]
12.9 µM: EC50 [3] | EC50 [18]
13.7 µM: IC50 (TE-11, TE-11 (oesophagus)) | IC50 [14]
> 30 µM: IC50 [1] | IC50 (SNU-182, SNU-182 (liver)) | IC50 (SNU-182, cell line SNU-182, liver, hepatocellular_carcinoma) | IC50 (SNU-475, cell line SNU-475 (liver, hepatocellular_carcinoma)) | IC50 [3] | IC50 [4] | IC50 (SNU-C1, SNU-C1 cells) | IC50 (SW480, SW480 (large_intestine)) | IC50 [10] | IC50 (SW837, SW837 (large_intestine)) | IC50 (SW837, SW837 (large_intestine, adenocarcinoma)) | IC50 (SW948, SW948 (large_intestine)) | IC50 (SW948, SW948 (large_intestine, adenocarcinoma)) | IC50 (SW1088, SW 1088 (central_nervous_system)) | IC50 [11] | IC50 (SW1353, SW 1353 (bone)) | IC50 (SW1353, SW 1353 (bone, NS)) | IC50 (SW1573, SW 1573 (lung)) | IC50 (SW1573, SW 1573 (lung, squamous_cell_carcinoma)) | IC50 (SW1783, SW 1783 (central_nervous_system, astrocytoma_Grade_III)) | IC50 (SW1783, cell line SW 1783 (central_nervous_system, astrocytoma_Grade_III)) | IC50 (SW1990, SW 1990 (pancreas)) | IC50 (SW1990, SW 1990 (pancreas, ductal_carcinoma)) | IC50 (T47D, T-47D (breast)) | IC50 (T47D, T-47D (breast, ductal_carcinoma)) | IC50 (T98G, T98G (central_nervous_system)) | IC50 (T98G, T98G (central_nervous_system, astrocytoma_Grade_IV)) | IC50 (TE-10, TE-10 (oesophagus)) | IC50 (TE-10, TE-10 (oesophagus, squamous_cell_carcinoma)) | IC50 (U-118-MG, U-118 MG (central_nervous_system, astrocytoma)) | IC50 (U-118-MG, cell line U-118 MG) | IC50 (U-251, U-251 MG (central_nervous_system)) | IC50 (U-251, U-251 MG (central_nervous_system, astrocytoma)) | IC50 (UACC-62, UACC-62 (skin)) | IC50 (UACC-62, UACC-62 cell line, skin, NS) | IC50 (WM 266-4, WM-266-4 (skin)) | IC50 (WM 266-4, WM-266-4 cell line, skin, NS) | IC50 (WM793, WM-793 (skin)) | IC50 (WM793, WM-793 cell line, skin, NS) | IC50 (WM-115, WM-115 (skin)) | IC50 (WM-115, WM-115 cell line, skin, NS) | IC50 (YAPC, YAPC (pancreas)) | IC50 (YAPC, YAPC cell line, pancreas, NS) | IC50 (YKG-1, YKG1 (central_nervous_system)) | IC50 (YKG-1, YKG1 cell line, central_nervous_system, astrocytoma_Grade_IV) | IC50 (ZR-75-30, ZR-75-30 (breast))
17.9 µM: IC50 (THP-1, THP-1 (haematopoietic_and_lymphoid_tissue, acute_myeloid_leukaemia))
2.41 µM: EC50 [11]
21.8 µM: IC50 (TOV21G, TOV-21G (ovary, clear_cell_carcinoma))
26 µM: IC50 [15] | EC50 [15]
21.5 µM: EC50 [16]
25.6 µM: IC50 (UMUC3, UM-UC-3 cell line, urinary_tract, transitional_cell_carcinoma)
14.1 µM: IC50 [2]
15.2 µM: EC50 (SW1353, SW 1353 (bone, NS)) | IC50 (Z-138, Z-138 (haematopoietic_and_lymphoid_tissue)) | IC50 (Z-138, Z-138 cell line, haematopoietic_and_lymphoid_tissue, mantle_cell_lymphoma)
8.92 µM: EC50 [10]
19.8 µM: IC50 (UACC-257, UACC-257 (skin, NS))
13.2 µM: EC50 [8]
21.1 µM: IC50 [18]
14.2 µM: IC50 [17] | EC50 [17]
26.1 µM: IC50 [12] | EC50 [12]
